Source: US12227509B2, “Dihydropyrazolopyrazinone derivative having MGAT2 inhibitory activity” (Shionogi & Co., Ltd., priority 2019, dated 2025)
Converted amounts (≈) assume the structure as drawn.

Legend:
Solution stability test = type: physicochemical; settings: 18 hr
Protocol: The compound of the present invention (0.4 mg) was weighed into a 4 mL screw vial, and 2 mL of various media pH=1 (0.1 N HClaq.+30% MeCN), pH=7 (pH 7 phosphate Buffer (100 mM+30% MeCN) or pH=9 (pH 9 carbonate Buffer (100 mM+30% MeCN) was added, respectively. Complete dissolution was confirmed. If not dissolved, filtration was performed with a 0.45 μm filter. The solution or filtrate was placed in an HPLC vial. HPLC sample cooler was set at 40° C., and sequence was set so that sampling was performed by HPLC at 0, 3, 6, 9, 12, 15, and 18 hours. Stability over time was evaluated by setting the area value of 0 hr product to 100%.

recombinant human MGAT2 = recombinant human MGAT2 (Homo sapiens (Human), UniProt Q3SYC2); experiment: Measurement of human MGAT2 inhibitory activity; type: biochemical; settings: concentration exhibiting 50% enzyme inhibition; recombinant human MGAT2, 2-Oleoylglycerol/Oleoyl-CoA
Chain of recombinant human MGAT2 (Q3SYC2 whole entry): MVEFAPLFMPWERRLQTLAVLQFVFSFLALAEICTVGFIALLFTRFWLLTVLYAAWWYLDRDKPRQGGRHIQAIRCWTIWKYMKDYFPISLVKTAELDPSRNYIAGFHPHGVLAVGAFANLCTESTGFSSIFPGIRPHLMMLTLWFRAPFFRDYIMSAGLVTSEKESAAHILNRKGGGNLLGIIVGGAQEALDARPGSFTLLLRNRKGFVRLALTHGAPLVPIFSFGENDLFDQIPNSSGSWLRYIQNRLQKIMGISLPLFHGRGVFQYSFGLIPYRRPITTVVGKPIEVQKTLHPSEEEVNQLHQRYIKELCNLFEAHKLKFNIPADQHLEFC
Method in brief: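 Membrane fraction of baculovirus-infected Sf-9 cells expressing N-terminally Flag-tagged full-length human MGAT2, in 100 mmol/L phosphate pH 7.4 with 2 mmol/L DTT. The substrate solution held 30 μmol/L 2-oleoylglycerol and 10 μmol/L oleoyl-CoA. After 1 h at room temperature, diolein/diolein-d5 ratio was read by ESI Q-TOF MS and % inhibition derived against enzyme and no-enzyme controls.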

[1] = BA test (oral absorption); type: in vivo; settings: plasma; mice or SD rats; from AUCs of oral and intravenous administration
Protocol: Materials and methods for experiments to evaluate oral absorption
(1) Animals: the mice or SD rats were used.
(2) Breeding conditions: the mice or SD rats were allowed to freely take solid food and sterilized tap water.
(3) Setting of dosage and grouping: Oral administration and intravenous administration were performed with a predetermined dosage. Grouping was set as below. (dosage changed per compound)
Oral administration: 1 to 30 mg/kg (n=2 to 3)
Intravenous administration: 0.5 to 10 mg/kg (n=2 to 3)
(4) Preparation of administration solution: Oral administration was performed in the form of a suspension or a solution. Intravenous administration was performed after solubilization.
(5) Routes of administration: Oral administration was performed mandatory into the stomach by oral sonde. Intravenous administration was performed from caudal vein or femoral vein by syringes with needle.
(6) Evaluation items: blood was collected over time, and the plasma concentration of the compound of the present invention was measured by LC/MS/MS.
(7) Statistical analysis: regarding the transition of the plasma concentration of the compound of the present invention, the area under the plasma concentration-time curve (AUC) was calculated by non-linear least squares program WinNonlin (registered trademark), and the bioavailability (BA) of the compound of the present invention was calculated from the AUCs of the oral administration group and intravenous administration group.

hERG (IKr) = hERG (IKr) (Homo sapiens (Human), UniProt Q12809); experiment: hERG test; type: cell-based; settings: CHO cells expressing hERG channel, pH 7.4, 10 μmol/L of test compound, read-out: % inhibition of hERG tail peak current (IKr)
Chain of hERG (IKr) (Q12809 whole entry): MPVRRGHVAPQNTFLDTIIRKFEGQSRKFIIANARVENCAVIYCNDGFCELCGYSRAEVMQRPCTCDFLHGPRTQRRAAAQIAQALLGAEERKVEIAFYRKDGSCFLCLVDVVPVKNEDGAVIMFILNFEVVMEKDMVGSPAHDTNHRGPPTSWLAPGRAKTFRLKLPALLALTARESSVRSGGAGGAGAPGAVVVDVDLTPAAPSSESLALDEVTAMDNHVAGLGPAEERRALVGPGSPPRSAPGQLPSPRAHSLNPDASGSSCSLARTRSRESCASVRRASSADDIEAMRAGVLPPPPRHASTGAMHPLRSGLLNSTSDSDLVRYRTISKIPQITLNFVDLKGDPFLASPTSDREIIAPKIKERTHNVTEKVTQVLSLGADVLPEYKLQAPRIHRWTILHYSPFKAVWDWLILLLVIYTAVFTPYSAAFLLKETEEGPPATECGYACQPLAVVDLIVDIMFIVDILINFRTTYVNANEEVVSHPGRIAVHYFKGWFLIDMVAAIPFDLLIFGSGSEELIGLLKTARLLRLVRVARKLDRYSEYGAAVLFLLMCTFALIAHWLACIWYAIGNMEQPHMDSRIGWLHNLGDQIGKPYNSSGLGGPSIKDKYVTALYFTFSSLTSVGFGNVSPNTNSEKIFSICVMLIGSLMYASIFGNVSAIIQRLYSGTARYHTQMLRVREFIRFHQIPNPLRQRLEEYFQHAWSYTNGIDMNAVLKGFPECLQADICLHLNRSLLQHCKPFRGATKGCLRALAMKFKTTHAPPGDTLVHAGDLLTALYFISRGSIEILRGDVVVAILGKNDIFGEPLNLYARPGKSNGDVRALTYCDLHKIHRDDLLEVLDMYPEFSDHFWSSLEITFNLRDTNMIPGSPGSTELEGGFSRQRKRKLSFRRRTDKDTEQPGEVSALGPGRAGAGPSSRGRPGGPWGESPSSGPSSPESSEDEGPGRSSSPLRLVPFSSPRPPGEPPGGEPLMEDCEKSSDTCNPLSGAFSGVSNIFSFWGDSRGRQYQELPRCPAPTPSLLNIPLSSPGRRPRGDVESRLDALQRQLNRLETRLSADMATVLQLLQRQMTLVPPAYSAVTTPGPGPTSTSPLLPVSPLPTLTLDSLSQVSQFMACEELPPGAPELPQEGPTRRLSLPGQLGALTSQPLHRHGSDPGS
Excerpt: For the purpose of assessing risk of an electrocardiogram QT interval prolongation of the compound of the present invention, effects of the compound of the present invention on delayed rectifier K^+ current (IKr), which plays an important role in the ventricular repolarization process, was studied using CHO cells expressing human ether-a-go-go related gene (hERG) channel.
After a cell was retained at a membrane potential of −80 mV by whole cell patch clamp method using an automated patch clamp system (QPatch; Sophion BIoscience A/S), IKr induced by application of a leak potential of −50 mV followed by depolarization pulse stimulation at +20 mV for 2 seconds and, further, repolarization pulse stimulation at −50 mV for 2 seconds, was recorded. […] From the recording IKr, an absolute value of the tail peak current was measured based on the current value at the resting membrane potential using analysis software (Falster Patch; Sophion Bioscience A/S). Further, the % inhibition of tail peak current for the compound of the present invention relative to the tail peak current after application of the vehicle is calculated to assess influence of the compound of the present invention on IKr.

CYP2D6 = CYP2D6 (Homo sapiens (Human), UniProt P10635); experiment: CYP inhibition test, CYP2D6; type: in vitro ADME; settings: pooled human liver microsomes; dextromethorphan O-demethylation; given as 'five kinds'
Chain of CYP2D6 (P10635 whole entry): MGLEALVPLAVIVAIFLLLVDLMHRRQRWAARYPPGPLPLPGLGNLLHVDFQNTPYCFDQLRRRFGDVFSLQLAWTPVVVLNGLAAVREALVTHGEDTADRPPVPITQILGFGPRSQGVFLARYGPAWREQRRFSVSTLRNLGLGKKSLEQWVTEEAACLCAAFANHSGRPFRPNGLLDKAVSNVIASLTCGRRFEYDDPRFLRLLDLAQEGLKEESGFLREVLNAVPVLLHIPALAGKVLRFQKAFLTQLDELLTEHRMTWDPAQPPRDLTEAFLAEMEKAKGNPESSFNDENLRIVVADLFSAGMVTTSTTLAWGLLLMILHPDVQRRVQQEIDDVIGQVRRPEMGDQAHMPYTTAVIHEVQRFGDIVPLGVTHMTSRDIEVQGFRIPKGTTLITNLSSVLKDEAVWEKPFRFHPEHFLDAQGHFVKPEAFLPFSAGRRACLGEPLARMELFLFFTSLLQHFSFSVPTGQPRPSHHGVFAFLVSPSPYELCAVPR
Excerpt: (§1) Using commercially available pooled human hepatic microsome, and employing, as markers, 7-ethoxyresorufin O-deethylation (CYP1A2), tolbutamide methyl-hydroxylation (CYP2C9), mephenytoin 4'-hydroxylation (CYP2C19), dextromethorphan 0-demethylation (CYP2D6), and terfenadine hydroxylation (CYP3A4) as typical substrate metabolism reactions of human main five CYP enzyme forms (CYP1A2, 2C9, 2C19, 2D6, 3A4), an inhibitory degree of each metabolite production amount by the compound of the present invention was assessed. The reaction conditions are as follows: substrate, 0.5 μmol/L ethoxyresorufin (CYP1A2), 100 μmol/L tolbutamide (CYP2C9), 50 μmol/L S-mephenitoin (CYP2C19), 5 μmol/L dextromethorphan (CYP2D6), 1 μmol/L terfenedine (CYP3A4); reaction time, 15 minutes; reaction temperature, 37° C.; enzyme, pooled human liver microsomes 0.2 mg protein/mL; concentrations of the compound of the present invention, 1, 5, 10, 20 μmol/L (four points). As a reaction solution, each five kinds of substrates, human liver microsomes, or compound of the present invention in 50 mmol/L Hepes buffer were added to a 96-well plate at the composition as described above, and NADPH, as a cofactor was added to initiate metabolism reactions. After the incubation at 37° C. for 15 minutes, a methanol/acetonitrile=1/[…]) solution was added to stop the reaction. After the centrifugation at 3000 rpm for 15 minutes, resorufin (CYP1A2 metabolite) in the supernatant was quantified by a fluorescent multilabel counter or LC/MS/MS, and tolbutamide hydroxide (CYP2C9 metabolite), mephenytoin 4' hydroxide (CYP2C19 metabolite), dextrorphan (CYP2D6 metabolite), and terfenadine alcohol (CYP3A4 metabolite) were quantified by LC/MS/MS. Addition of only DMSO being a solvent dissolving a drug to a reaction system was adopted as a control (100%). Remaining activity (%) was calculated. IC50 was calculated by reverse presumption by a logistic model using the concentration and an inhibition rate.

CYP3A4 = CYP3A4 (Homo sapiens (Human), UniProt P08684); experiment: CYP inhibition test, CYP3A4; type: in vitro ADME; settings: pooled human liver microsomes; terfenadine hydroxylation; given as 'five kinds'
Chain of CYP3A4 (P08684 whole entry): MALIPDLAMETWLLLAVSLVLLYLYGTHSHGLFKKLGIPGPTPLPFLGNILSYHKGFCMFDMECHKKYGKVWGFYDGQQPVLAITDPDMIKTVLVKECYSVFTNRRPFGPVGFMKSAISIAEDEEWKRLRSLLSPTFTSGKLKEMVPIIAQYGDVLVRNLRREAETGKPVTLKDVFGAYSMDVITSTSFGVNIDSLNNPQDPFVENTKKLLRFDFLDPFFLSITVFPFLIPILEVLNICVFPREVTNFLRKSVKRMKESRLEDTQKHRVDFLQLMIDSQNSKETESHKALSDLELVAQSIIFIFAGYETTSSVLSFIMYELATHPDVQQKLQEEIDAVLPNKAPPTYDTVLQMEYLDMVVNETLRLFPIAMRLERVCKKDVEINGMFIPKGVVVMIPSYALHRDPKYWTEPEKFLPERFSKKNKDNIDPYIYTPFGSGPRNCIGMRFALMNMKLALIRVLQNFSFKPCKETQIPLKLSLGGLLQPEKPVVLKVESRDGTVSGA
Excerpt: as §1

CYP2C19 = CYP2C19 (Homo sapiens (Human), UniProt P33261); experiment: CYP inhibition test, CYP2C19; type: in vitro ADME; settings: pooled human liver microsomes; mephenytoin 4′-hydroxylation; given as 'five kinds'
Chain of CYP2C19 (P33261 whole entry): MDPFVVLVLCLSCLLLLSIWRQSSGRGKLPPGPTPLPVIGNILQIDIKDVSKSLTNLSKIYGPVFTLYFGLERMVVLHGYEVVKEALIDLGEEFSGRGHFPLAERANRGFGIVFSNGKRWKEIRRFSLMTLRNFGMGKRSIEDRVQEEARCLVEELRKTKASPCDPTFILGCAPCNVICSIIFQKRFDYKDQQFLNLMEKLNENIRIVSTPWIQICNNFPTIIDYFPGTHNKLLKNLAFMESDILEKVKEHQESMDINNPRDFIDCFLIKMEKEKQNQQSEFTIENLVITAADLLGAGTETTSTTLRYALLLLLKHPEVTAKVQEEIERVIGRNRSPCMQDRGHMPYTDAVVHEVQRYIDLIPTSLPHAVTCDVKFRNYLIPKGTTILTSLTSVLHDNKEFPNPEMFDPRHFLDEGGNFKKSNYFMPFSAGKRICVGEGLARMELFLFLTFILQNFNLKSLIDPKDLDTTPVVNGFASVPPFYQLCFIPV
Excerpt: as §1

[2] = Metabolism stability test (human liver microsomes); type: in vitro ADME; settings: compound concentration 0.5 μmol/L, 37° C., 30 minutes, NADPH
Protocol: Using commercially available pooled human hepatic microsomes, the compound of the present invention was reacted for a constant time, a remaining rate was calculated by comparing a reacted sample and an unreacted sample, thereby, a degree of metabolism of the compound of the present invention in liver was assessed.
A reaction was performed (oxidative reaction) at 37° C. for 0 minute or 30 minutes in the presence of 1 mmol/L NADPH in 0.2 mL of a buffer (50 mmol/L Tris-HCl pH 7.4, 150 mmol/L potassium chloride, 10 mmol/L magnesium chloride) containing 0.5 mg protein/mL of human liver microsomes. After the reaction, 50 μL of the reaction solution was added to 100 μL of a methanol/acetonitrile=1/1 (v/v) solution, mixed and centrifuged at 3000 rpm for 15 minutes. The compound of the present invention in the supernatant was quantified by LC/MS/MS, and a remaining amount of the compound of the present invention after the reaction was calculated, letting a compound amount at 0 minute reaction time to be 100%.

CYP1A2 = CYP1A2 (Homo sapiens (Human), UniProt P05177); experiment: CYP inhibition test, CYP1A2; type: in vitro ADME; settings: pooled human liver microsomes; 7-ethoxyresorufin O-deethylation; given as 'five kinds'
Chain of CYP1A2 (P05177 whole entry): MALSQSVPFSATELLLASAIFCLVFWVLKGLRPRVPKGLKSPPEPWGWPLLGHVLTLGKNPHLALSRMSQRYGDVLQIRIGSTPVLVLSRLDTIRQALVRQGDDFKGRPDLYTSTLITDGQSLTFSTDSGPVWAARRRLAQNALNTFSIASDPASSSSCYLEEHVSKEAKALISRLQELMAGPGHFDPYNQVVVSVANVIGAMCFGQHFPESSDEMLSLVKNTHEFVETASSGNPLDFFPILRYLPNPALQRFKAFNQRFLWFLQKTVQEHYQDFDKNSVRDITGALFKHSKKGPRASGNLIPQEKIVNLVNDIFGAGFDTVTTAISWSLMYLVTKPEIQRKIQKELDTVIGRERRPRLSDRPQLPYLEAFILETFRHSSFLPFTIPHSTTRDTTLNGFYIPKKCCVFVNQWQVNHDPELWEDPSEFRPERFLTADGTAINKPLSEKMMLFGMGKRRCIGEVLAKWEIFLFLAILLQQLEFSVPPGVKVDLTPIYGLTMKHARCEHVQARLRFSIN
Excerpt: as §1

CYP2C9 = CYP2C9 (Homo sapiens (Human), UniProt P11712); experiment: CYP inhibition test, CYP2C9; type: in vitro ADME; settings: pooled human liver microsomes; tolbutamide methyl-hydroxylation; given as 'five kinds'
Chain of CYP2C9 (P11712 whole entry): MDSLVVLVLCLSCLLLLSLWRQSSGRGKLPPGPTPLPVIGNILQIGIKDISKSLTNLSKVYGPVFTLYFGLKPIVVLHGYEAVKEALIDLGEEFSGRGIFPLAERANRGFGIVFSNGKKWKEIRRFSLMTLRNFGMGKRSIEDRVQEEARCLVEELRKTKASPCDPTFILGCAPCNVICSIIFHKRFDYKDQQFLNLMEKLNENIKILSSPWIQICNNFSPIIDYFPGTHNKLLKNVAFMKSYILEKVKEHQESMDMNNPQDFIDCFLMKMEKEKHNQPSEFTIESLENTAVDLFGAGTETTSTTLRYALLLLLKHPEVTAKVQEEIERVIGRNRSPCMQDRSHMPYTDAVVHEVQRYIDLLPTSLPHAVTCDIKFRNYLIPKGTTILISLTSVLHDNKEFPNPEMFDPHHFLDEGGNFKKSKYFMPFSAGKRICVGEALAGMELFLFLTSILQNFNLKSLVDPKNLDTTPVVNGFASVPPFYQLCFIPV
Excerpt: as §1

[3] = Solubility test (1% DMSO addition, pH 6.8 artificial intestinal juice); type: physicochemical; settings: kinetic from dmso stock, 16 hours at 25° C.
Protocol: The solubility of the compound of the present invention was determined under 1% DMSO addition conditions. 10 mmol/L solution of the compound was prepared with DMSO, and 6 μL of the solution of the compound of the present invention was added to 594 μL of pH 6.8 artificial intestinal juice (118 mL of 0.2 mol/L NaOH test solution and water were added to 250 mL of 0.2 mol/L potassium dihydrogen phosphate test solution to reach 1000 mL). The mixture was left standing for 16 hours at 25° C., and the mixture was vacuum-filtered. The filtrate was two-fold diluted with methanol/water=1/1 (V/V), and the compound concentration in the filtrate was measured with HPLC or LC/MS/MS by the absolute calibration method. The dilution concentration and the dilution solvent were changed as necessary.

Residual rate (Solution stability test; pH=1, 40° C.) [%]	Residual rate (Solution stability test; pH=7, 40° C.) [%]	Residual rate (Solution stability test; pH=9, 40° C.) [%]	IC50 (recombinant human MGAT2) [µM]	bioavailability [1] [%]	IC50 (CYP2D6) [µM]	IC50 (CYP3A4) [µM]	IC50 (CYP2C19) [µM]	Remaining rate [2] [%]	IC50 (CYP1A2) [µM]	IC50 (CYP2C9) [µM]	solubility at 16 h [3] [µM]	SMILES	inhibition at 10 min, 10 μmol/L (hERG (IKr)) [%]
100.2	100.9	100.2	0.00199									CS(=O)(=O)CC(=O)Nc1c(-c2ccc(C#N)cn2)nn2c1C(=O)N[C@@]1(CCc3cc(OCC(F)(F)F)ccc31)C2 [Compound I-3]	
				60.5	> 20	> 20	> 20	98.5	> 20	> 20		CS(=O)(=O)CC(=O)Nc1c(-c2ccc(F)c(F)c2)nn2c1C(=O)N[C@@]1(CCc3cc(OCC(F)(F)F)ccc31)C2 [Compound I-33]	21.3
				49				101			> 50	CS(=O)(=O)CC(=O)Nc1c(-c2ccc(Cl)cn2)nn2c1C(=O)N[C@@]1(CCOc3cc(F)cc(F)c31)C2 [Compound I-137]	23.6
				67	> 20	> 20	> 20	99.4	> 20	> 20	48.9 (≈ 25.8 µg/mL)	CS(=O)(=O)CC(=O)Nc1c(-c2ccc(C3CC3)cn2)nn2c1C(=O)N[C@@]1(CCc3cc(F)cc(F)c31)C2 [Compound I-141]	14
				66.2	> 20	> 20	> 20	106	> 20	> 20	> 50	CS(=O)(=O)CC(=O)Nc1c(-c2ccc(Cl)cn2)nn2c1C(=O)N[C@@]1(CCc3cc(F)cc(F)c31)C2 [Compound I-142]	10.6
